Measurements published in patent publication US10781211B2, “Spirocycle compounds and methods of making and using same” (Lundbeck La Jolla Research Center, Inc., priority 2016, dated 2020).

How the values were obtained:
Type in all cases: in vivo
Conditions in all cases: 5 mg/kg oral gavage
[1] = target: FAAH (Mus musculus (Mouse), UniProt O08914); test: Mouse brain proteomes from inhibitor treated mice (oral gavage, sacrifice 4 h after administration, ABPP analysis), FAAH
Summary of the method: (§1)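 Percent inhibition in brain tissue measured by ABPP 4 h after a single oral gavage dose (5 mg/kg) to wild-type C57Bl/6J mice; vehicle was, for example, PEG400/Ethanol/PBS at 7/2/1.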

[2] = target: MAGL (Mus musculus (Mouse), UniProt O35678); test: Mouse brain proteomes from inhibitor treated mice (oral gavage, sacrifice 4 h after administration, ABPP analysis)
Summary of the method: as §1

[3] = target: ABHD6 (Mus musculus (Mouse), UniProt Q8R2Y0); test: Mouse brain proteomes from inhibitor treated mice (oral gavage, sacrifice 4 h after administration, ABPP analysis), ABHD6
Summary of the method: as §1

MAGL, sequence (O35678 whole entry): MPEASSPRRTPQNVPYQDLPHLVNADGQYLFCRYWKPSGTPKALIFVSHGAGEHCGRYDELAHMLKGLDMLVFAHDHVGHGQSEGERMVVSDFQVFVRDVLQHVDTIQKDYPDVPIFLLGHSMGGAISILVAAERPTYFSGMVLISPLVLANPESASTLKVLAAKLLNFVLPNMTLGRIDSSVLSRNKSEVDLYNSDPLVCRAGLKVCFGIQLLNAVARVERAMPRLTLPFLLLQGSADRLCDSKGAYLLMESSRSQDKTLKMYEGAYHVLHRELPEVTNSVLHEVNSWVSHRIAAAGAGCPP
ABHD6, sequence (Q8R2Y0 whole entry): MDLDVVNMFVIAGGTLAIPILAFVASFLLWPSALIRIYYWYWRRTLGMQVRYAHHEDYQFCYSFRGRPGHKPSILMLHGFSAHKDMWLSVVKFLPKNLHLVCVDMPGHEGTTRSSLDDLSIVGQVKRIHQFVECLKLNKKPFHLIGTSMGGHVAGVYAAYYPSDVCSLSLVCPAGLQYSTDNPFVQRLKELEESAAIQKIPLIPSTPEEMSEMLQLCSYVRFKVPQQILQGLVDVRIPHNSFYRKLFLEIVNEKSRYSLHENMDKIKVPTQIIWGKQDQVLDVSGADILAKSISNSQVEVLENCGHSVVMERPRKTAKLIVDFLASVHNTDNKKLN
FAAH, sequence (O08914 whole entry): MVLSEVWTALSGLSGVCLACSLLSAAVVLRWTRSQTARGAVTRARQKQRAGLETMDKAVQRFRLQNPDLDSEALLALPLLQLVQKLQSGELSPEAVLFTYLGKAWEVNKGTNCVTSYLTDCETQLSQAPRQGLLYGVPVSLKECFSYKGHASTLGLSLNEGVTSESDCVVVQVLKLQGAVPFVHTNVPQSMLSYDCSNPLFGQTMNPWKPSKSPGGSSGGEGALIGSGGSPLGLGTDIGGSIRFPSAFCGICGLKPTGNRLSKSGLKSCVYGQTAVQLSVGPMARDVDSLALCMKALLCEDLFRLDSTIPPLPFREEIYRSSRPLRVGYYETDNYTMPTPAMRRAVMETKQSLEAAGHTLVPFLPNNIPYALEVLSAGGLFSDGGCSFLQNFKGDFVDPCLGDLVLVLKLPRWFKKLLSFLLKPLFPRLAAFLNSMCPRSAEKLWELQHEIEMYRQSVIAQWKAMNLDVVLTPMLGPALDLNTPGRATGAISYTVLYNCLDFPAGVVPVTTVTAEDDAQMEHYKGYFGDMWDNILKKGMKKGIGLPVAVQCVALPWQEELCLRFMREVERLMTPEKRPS

SMILES	FAAH % Inh 5 mg/kg (mouse) [1]	MAGL % Inh 5 mg/kg (mouse) [2]	ABHD6 % Inh 5 mg/kg (mouse) [3]
O=C(OC(C(F)(F)F)C(F)(F)F)N1CCC2(CCCN2Cc2ccc(N3CCOCC3)c(C(F)(F)F)c2)CC1 [Example 129, 1,1,1,3,3,3-Hexafluoropropan-2-yl 1-(4-morpholino-3-(trifluoromethyl)benzyl)-1,8-diazaspiro[4.5]decane-8-carboxylate]	# (# is < 25%)	### (### is ≥ 75%)	# (# is < 25%)
O=C(OC(C(F)(F)F)C(F)(F)F)N1CCC2(CCCN2Cc2ccc(Cl)cc2N2CCC(F)CC2)CC1 [Example 102, 1,1,1,3,3,3-Hexafluoropropan-2-yl 1-(4-chloro-2-(4-fluoropiperidin-1-yl)benzyl)-1,8-diazaspiro[4.5]decane-8-carboxylate]	# (# is < 25%)	### (### is ≥ 75%)	# (# is < 25%)
O=C(OC(C(F)(F)F)C(F)(F)F)N1CCC2(CCCN2Cc2ccc(C(F)(F)F)cc2N2CC3COCC3C2)CC1 (stereo not drawn) [Example 97, 1,1,1,3,3,3-Hexafluoropropan-2-yl 1-(2-(tetrahydro-1H-furo[3,4-c]pyrrol-5(3H)-yl)-4-(trifluoromethyl)benzyl)-1,8-diazaspiro[4.5]decane-8-carboxylate]	# (# is < 25%)	### (### is ≥ 75%)	# (# is < 25%)
O=C(OC(C(F)(F)F)C(F)(F)F)N1CCC2(CCCN2Cc2ccc(C(F)(F)F)c(Cl)c2)CC1 [Example 183, 1,1,1,3,3,3-Hexafluoropropan-2-yl 1-(3-chloro-4-(trifluoromethyl)benzyl)-1,8-diazaspiro[4.5]decane-8-carboxylate]	# (# is < 25%)	### (### is ≥ 75%)	# (# is < 25%)
O=C(OC(C(F)(F)F)C(F)(F)F)N1CCC2(CCN(Cc3ccc(C(F)(F)F)cc3N3CCOCC3)C2)CC1 [Example 22, 1,1,1,3,3,3-Hexafluoropropan-2-yl 2-(2-morpholino-4-(trifluoromethyl)benzyl)-2,8-diazaspiro[4.5]decane-8-carboxylate]	# (# is < 25%)	### (### is ≥ 75%)	# (# is < 25%)
O=C(OC(C(F)(F)F)C(F)(F)F)N1CCC2(CCCN2Cc2ccc(Cl)cc2N2CC3CCC(C2)O3)CC1 [Example 75, 1,1,1,3,3,3-Hexafluoropropan-2-yl 1-(2-(8-oxa-3-azabicyclo[3.2.1]octan-3-yl)-4-chlorobenzyl)-1,8-diazaspiro[4.5]decane-8-carboxylate]	# (# is < 25%)	### (### is ≥ 75%)	# (# is < 25%)
O=C(O)[C@H]1CCCCN1c1cc(CN2CCCC23CCN(C(=O)OC(C(F)(F)F)C(F)(F)F)CC3)cc(C(F)(F)F)c1 [Example 274]	# (# is < 25%)	### (### is ≥ 75%)	# (# is < 25%)
CC1(C(=O)O)CN(c2cc(C(F)(F)F)ccc2CN2CCC3(CCN(C(=O)OC(C(F)(F)F)C(F)(F)F)CC3)C2)CCO1 (stereo not drawn) [Example 256]	# (# is < 25%)	# (# is < 25%)	# (# is < 25%)
O=C(O)C1CCN(c2cc(OC(F)(F)F)ccc2CN2CCCC23CCN(C(=O)OC(C(F)(F)F)C(F)(F)F)CC3)CC1 [Example 248]	# (# is < 25%)	### (### is ≥ 75%)	# (# is < 25%)
O=C(OC(C(F)(F)F)C(F)(F)F)N1CCC2(CCCN2Cc2cccc(N3CCOCC3)c2Cl)CC1 [Example 79, 1,1,1,3,3,3-Hexafluoropropan-2-yl 1-(2-chloro-3-morpholinobenzyl)-1,8-diazaspiro[4.5]decane-8-carboxylate]	# (# is < 25%)	### (### is ≥ 75%)	# (# is < 25%)
